Reference: the NIST ThermoML archive (doi:10.1016/j.fluid.2018.06.004)

Settings: 101.33 kPa, Liquid, transient hot wire

CCCCCCCCCCCC(=O)OCC [ethyl dodecanoate]
Settings | thermal conductivity [W/m/K]
274.73 K | 0.151
284.69 K | 0.1489
294.56 K | 0.1471
304.59 K | 0.1446
314.47 K | 0.1424
324.41 K | 0.1399
334.28 K | 0.1377
344.09 K | 0.1362
349.21 K | 0.1343
354.09 K | 0.1334
359.09 K | 0.1321
369.13 K | 0.1296
379.1 K | 0.1275
389.1 K | 0.1253
400.08 K | 0.1229

CCCCCCCCCCCCCC(=O)OCC [ethyl tetradecanoate]
Settings | thermal conductivity [W/m/K]
290.64 K | 0.1515
298.29 K | 0.1501
307.33 K | 0.1481
315.2 K | 0.1465
324.22 K | 0.1448
333.17 K | 0.1426
340.99 K | 0.1406
350.11 K | 0.1383
359.07 K | 0.137
367.97 K | 0.1342
377.86 K | 0.1326
389.06 K | 0.1297
393.88 K | 0.1286

CCCCCCCCCC(=O)OCC [ethyl decanoate]
Settings | thermal conductivity [W/m/K]
270 K | 0.1483
279.98 K | 0.1463
289.85 K | 0.1442
299.64 K | 0.1422
309.6 K | 0.14
319.72 K | 0.1375
329.53 K | 0.1355
339.49 K | 0.1332
349.51 K | 0.1307
359.46 K | 0.1284
369.3 K | 0.1266
374.44 K | 0.1248
379.49 K | 0.1238
389.25 K | 0.1214
400.44 K | 0.1195

O [water]
Settings | thermal conductivity [W/m/K]
293.09 K | 0.6056
299.55 K | 0.613
309.83 K | 0.6313
314.96 K | 0.6399
319.56 K | 0.6399
324.64 K | 0.6492
332.53 K | 0.6555
339.33 K | 0.657
340.41 K | 0.6654
349.41 K | 0.6723

CCCCCCC(=O)OCC [ethyl heptanoate]
Settings | thermal conductivity [W/m/K]
250.38 K | 0.1482
260.21 K | 0.1463
270.16 K | 0.1441
280.02 K | 0.1414
289.93 K | 0.1397
299.84 K | 0.137
309.9 K | 0.1343
319.73 K | 0.1321
329.73 K | 0.1294
337.72 K | 0.127
341.71 K | 0.1259
347.65 K | 0.1251
353.6 K | 0.1235
363.5 K | 0.121
373.51 K | 0.1183
383.64 K | 0.1155
393.46 K | 0.1139

CCCCCCCC(=O)OCC [ethyl octanoate]
Settings | thermal conductivity [W/m/K]
254.76 K | 0.1484
264.72 K | 0.1462
274.7 K | 0.144
284.63 K | 0.1422
294.53 K | 0.1405
300.47 K | 0.1387
307.05 K | 0.1366
310.45 K | 0.1356
320.37 K | 0.1336
330.4 K | 0.1312
340.34 K | 0.1286
350.38 K | 0.1268
360.32 K | 0.1234
370.25 K | 0.1211
380.17 K | 0.1188
390.39 K | 0.1167
400.37 K | 0.1142

CCO [ethanol]
Settings | thermal conductivity [W/m/K]
276.51 K | 0.1719
280.8 K | 0.1687
284.27 K | 0.1699
290.37 K | 0.1677
293.43 K | 0.1658
